Assay results reported in publication PMC12920294, “Optimizing uPAR-targeting radiopeptides for improved tissue distribution: progress towards radionuclide therapy” (European Journal of Nuclear Medicine and Molecular Imaging, 2025).
Where two headings read alike, the source gives them in different places.

What was measured:
[1] = test system: HEK-uPAR xenograft-bearing mice; details: mouse, in vivo
Description: (§1) HEK-uPAR xenografted mice were injected with the respective radiopeptide (5 MBq, 0.5 nmol/mouse, 100 µL 0.9% NaCl containing 0.05% BSA) and sacrificed at 4 h and 24 h after injection. […] The tissues and organs of interest were collected, weighed and counted for activity using a γ-counter (Wallac Wizard 1480, PerkinElmer). […] The results were presented as the average ± SD of n = 3 mice. The time-activity curves were determined for the uptake of [^177Lu]Lu-DOTA-AE105 and [^177Lu]Lu-uPAR-11 in the blood, HEK-uPAR xenografts, kidneys and liver based on non-decay corrected biodistribution data. For the blood, the initial uptake (t = 0) was set as 50% IA/g assuming a blood volume of 2 mL for CD1 nude mice. The initial uptake value (t = 0) for all other organs and tissues was set as 0% IA/g. […] The area under the curves over 48 h after injection (AUC0h→48 h) was calculated using GraphPad Prism software (version 10.1.1). Statistical analyses were performed by applying a one-way ANOVA test with a Dunnet’s multiple comparison post‐test to compare the data of the new radiopeptides with those of [^177Lu]Lu-DOTA-AE105 and a Tukey’s multiple comparisons post‐test to compare the novel radiopeptides among them. A p-value of < 0.05 was considered a statistically significant difference using GraphPad Prism software (version 10.1.1).

in vivo = details: CD1 nude, mouse, 0.5 nmol/mouse, total radioactivity
Description: as §1

physchem = assay type: physicochemical; details: pH 7.4
Description: The ^177Lu-labeled peptides (50 MBq/nmol) were incubated in mouse or human blood plasma (10 MBq/200 µL) over an incubation period of 24 h at 37 °C. Aliquots and control samples of the radiopeptides diluted in saline were analyzed after 1 h, 4 h and 24 h using thin layer chromatography (TLC) as previously reported (Supplementary Material). The distribution coefficients (logD values) of the ^177Lu-labeled peptides (50 MBq/nmol) were determined using a shake-flask method according to a previously published procedure (Supplementary Material). Methods: The radiopeptides (50 MBq/nmol) were diluted in phosphate buffered saline (PBS) pH 7.4 to obtain an activity concentration of 10 MBq/500 µL. A sample of this radiopeptide solution (~0.5 MBq, 25 µL, 0.01 nmol) was added to a mixture of PBS pH 7.4 (1475 µL) and n-octanol (1500 µL). The vials were vortexed vigorously for 1 min followed by centrifugation (560 rcf, 25°C, 6 min) for phase separation. Aliquots were taken from each phase and measured in a γ-counter (Wallac Wizard 1480, PerkinElmer). The distribution coefficients were calculated as the logarithmic value of the ratio of counts per minute (cpm) measured in the n-octanol phase relative to the cpm measured in the PBS phase. The results were listed as average ± SD of the data obtained from 3 independent experiments, each performed with five replicates.

[2] = assay type: in vitro ADME; details: 1 µM
Description: The ^177Lu-labeled peptides (50 MBq/nmol) were incubated in mouse or human blood plasma (10 MBq/200 µL) over an incubation period of 24 h at 37 °C. Aliquots and control samples of the radiopeptides diluted in saline were analyzed after 1 h, 4 h and 24 h using thin layer chromatography (TLC) as previously reported (Supplementary Material). The distribution coefficients (logD values) of the ^177Lu-labeled peptides (50 MBq/nmol) were determined using a shake-flask method according to a previously published procedure (Supplementary Material).
Methods: A sample of each radiopeptide (50 MBq/nmol) was added to mouse blood plasma (Lot: 32321, Rockland Immunochemicals Inc., USA) or to human blood plasma (Stiftung Blutspende SRK Aargau-Solothurn, Switzerland) to obtain an activity concentration of 10 MBq/200 µL. The test samples were incubated at 37 °C for up to 24 h. Control samples referred to the radiopeptides which were instead diluted in saline at an activity concentration of 10 MBq/200 µL. Aliquots of each sample (2 µL, ~100 kBq) were taken after 1 h, 4 h and 24 h and investigated by means of thin layer chromatography (TLC). The employed method involved reversed-phase TLC plates (MERCK Analytical Chromatography, TLC Silica gel 60 RP-18 F254s) as stationary phase and ACN/citrate buffer (3:7; v/v; pH 5.5) as mobile phase. After the eluent reached the front line, the TLC plates were dried and exposed to a phosphor screen (Super resolution screen PSR10450013, PerkinElmer) for 1 min. The respective screen was developed using a storage phosphor system (Cyclone Plus, PerkinElmer) and analyzed using the OptiQuant Software (version 5.0, Bright Instrument Co Ltd., PerkinElmer).

| Xgrft-to-liver ratio [1] | tissue uptake at 4 h (in vivo; Blood uptake) [%ID/g] | tissue uptake at 24 h (in vivo; Blood uptake) [%ID/g] | tissue uptake at 4 h (in vivo; Bone uptake) [%ID/g] | tissue uptake at 24 h (in vivo; Bone uptake) [%ID/g] | tissue uptake at 4 h (in vivo; Brain uptake) [%ID/g] | tissue uptake at 24 h (in vivo; Brain uptake) [%ID/g] | tissue uptake at 4 h (in vivo; HEK-uPAR xenograft uptake) [%ID/g] | tissue uptake at 24 h (in vivo; HEK-uPAR xenograft uptake) [%ID/g] | tissue uptake at 4 h (in vivo; Heart uptake) [%ID/g] | tissue uptake at 24 h (in vivo; Heart uptake) [%ID/g] | tissue uptake at 4 h (in vivo; Intestines uptake) [%ID/g] | tissue uptake at 24 h (in vivo; Intestines uptake) [%ID/g] | tissue uptake at 4 h (in vivo; Kidneys uptake) [%ID/g] | tissue uptake at 24 h (in vivo; Kidneys uptake) [%ID/g] | tissue uptake at 4 h (in vivo; Liver uptake) [%ID/g] | tissue uptake at 24 h (in vivo; Liver uptake) [%ID/g] | tissue uptake at 4 h (in vivo; Lung uptake) [%ID/g] | tissue uptake at 24 h (in vivo; Lung uptake) [%ID/g] | tissue uptake at 4 h (in vivo; Muscle uptake) [%ID/g] | SMILES | further results |
| --- | --- | --- | --- | --- | --- | --- | --- | --- | --- | --- | --- | --- | --- | --- | --- | --- | --- | --- | --- | --- | --- |
| 20 ± 3 | 3.4 ± 0.7 | 0.05 | 0.5 ± 0.04 | 0.19 ± 0.01 | 0.08 ± 0.01 | < 0.03 | 14 ± 1 | 7.3 ± 0.4 | 1.3 ± 0.2 | 0.12 ± 0.01 | 0.58 ± 0.14 | 0.17 ± 0.02 | 3.7 ± 0.4 | 2.1 ± 0.2 | 1.2 ± 0.1 | 0.38 ± 0.06 | 2.1 ± 0.4 | 0.29 ± 0.02 | 0.37 ± 0.03 | Cc1ccc(CCCC(=O)NCCOCCOCCOCCOCCOCCC(=O)NCCCC[C@H](NC(=O)CN2CCN(CC(=O)O)CCN(CC(=O)O)CCN(CC(=O)O)CC2)C(=O)N[C@@H](CC(=O)O)C(=O)N[C@@H](CC2CCCCC2)C(=O)N[C@@H](Cc2ccccc2)C(=O)N[C@H](CO)C(=O)N[C@H](CCCNC(=N)N)C(=O)N[C@@H](Cc2ccc(O)cc2)C(=O)N[C@@H](CC(C)C)C(=O)N[C@@H](Cc2c[nH]c3ccccc23)C(=O)N[C@@H](CO)C(N)=O)cc1 [[^177Lu]Lu-uPAR-18, metal not drawn] | tissue uptake at 24 h (in vivo; Muscle uptake): 0.06 ± 0.01 %ID/g; tissue uptake at 4 h (in vivo; Pancreas uptake): 0.63 ± 0.27 %ID/g; tissue uptake at 24 h (in vivo; Pancreas uptake): 0.09 ± 0.01 %ID/g; tissue uptake at 4 h (in vivo; Salivary glands uptake): 0.87 ± 0.2 %ID/g; tissue uptake at 24 h (in vivo; Salivary glands uptake): 0.23 ± 0.03 %ID/g; tissue uptake at 4 h (in vivo; Spleen uptake): 0.77 ± 0.01 %ID/g; tissue uptake at 24 h (in vivo; Spleen uptake): 0.42 ± 0.04 %ID/g; tissue uptake at 4 h (in vivo; Stomach uptake): 0.54 ± 0.12 %ID/g; tissue uptake at 24 h (in vivo; Stomach uptake): 0.11 ± 0.02 %ID/g; logD (physchem): -0.5 ± 0.07; Human blood plasma stability, intact radiopeptide ([2]; 1 h): 100 ± 1%; Mouse blood plasma stability, intact radiopeptide ([2]; 1 h): 100 ± 1%; Human blood plasma stability, intact radiopeptide ([2]; 4 h): 99 ± 1%; Mouse blood plasma stability, intact radiopeptide ([2]; 4 h): 99 ± 2%; Human blood plasma stability, intact radiopeptide ([2]; 24 h): 95 ± 2%; Mouse blood plasma stability, intact radiopeptide ([2]; 24 h): 89 ± 3% |
| 10 ± 3 | 6 ± 1.3 | < 0.03 | 0.82 ± 0.1 | 0.06 ± 0.01 | 0.13 ± 0.04 | < 0.03 | 8 ± 0.7 | 2.1 ± 0.5 | 2.2 ± 0.4 | 0.07 ± 0.01 | 0.87 ± 0.18 | 0.05 ± 0.01 | 4.6 ± 0.3 | 1.3 to 1.7 | 1.7 ± 0.2 | 0.21 ± 0.03 | 3 ± 0.7 | 0.12 ± 0.02 | 0.57 ± 0.1 | Cc1ccc(CCCC(=O)NCCOCCOCCOCCOCCC(=O)NCCCC[C@H](NC(=O)CC[C@H](C(=O)O)N2CCN(CC(=O)O)CCN(CC(=O)O)CCN(CC(=O)O)CC2)C(=O)N[C@@H](CC(=O)O)C(=O)N[C@@H](CC2CCCCC2)C(=O)N[C@@H](Cc2ccccc2)C(=O)N[C@H](CO)C(=O)N[C@H](CCCNC(=N)N)C(=O)N[C@@H](Cc2ccc(O)cc2)C(=O)N[C@@H](CC(C)C)C(=O)N[C@@H](Cc2c[nH]c3ccccc23)C(=O)N[C@@H](CO)C(N)=O)cc1 [[^177Lu]Lu-uPAR-17, metal not drawn] | Kidneys uptake ([1]; CD1 nude, 0.5 nmol/mouse, 24 h): 1.3 ± 0.2 %IA/g; tissue uptake at 24 h (in vivo; Muscle uptake): < 0.03 %ID/g; tissue uptake at 4 h (in vivo; Pancreas uptake): 0.82 ± 0.17 %ID/g; tissue uptake at 24 h (in vivo; Pancreas uptake): 0.04 ± 0.01 %ID/g; tissue uptake at 4 h (in vivo; Salivary glands uptake): 1.2 ± 0.3 %ID/g; tissue uptake at 24 h (in vivo; Salivary glands uptake): 0.12 ± 0.03 %ID/g; tissue uptake at 4 h (in vivo; Spleen uptake): 1 ± 0.2 %ID/g; tissue uptake at 24 h (in vivo; Spleen uptake): 0.13 ± 0.02 %ID/g; tissue uptake at 4 h (in vivo; Stomach uptake): 0.73 ± 0.29 %ID/g; tissue uptake at 24 h (in vivo; Stomach uptake): 0.05 ± 0.01 %ID/g; logD (physchem): -1.56 ± 0.03; Human blood plasma stability, intact radiopeptide ([2]; 1 h): 100 ± 1%; Mouse blood plasma stability, intact radiopeptide ([2]; 1 h): 100 ± 1%; Human blood plasma stability, intact radiopeptide ([2]; 4 h): 99 ± 1%; Mouse blood plasma stability, intact radiopeptide ([2]; 4 h): 97 ± 2%; Human blood plasma stability, intact radiopeptide ([2]; 24 h): 96 ± 1%; Mouse blood plasma stability, intact radiopeptide ([2]; 24 h): 61 ± 9% |
| 6.5 ± 1.7 | 4.5 ± 0.5 | 0.04 ± 0.01 | 0.66 ± 0.05 | 0.12 ± 0.03 | 0.1 ± 0.02 | < 0.03 | 12 ± 1 | 3.1 ± 0.8 | 1.6 ± 0.2 | 0.13 ± 0.01 | 0.74 ± 0.15 | 0.16 ± 0.03 | 3.9 ± 0.6 | 2 ± 0.3 | 1.6 ± 0.2 | 0.5 ± 0.11 | 2.6 ± 0.4 | 0.27 ± 0.06 | 0.41 ± 0.1 | Cc1ccc(CCCC(=O)NCCOCCOCCOCCC(=O)NCCCC[C@H](NC(=O)CN2CCN(CC(=O)O)CCN(CC(=O)O)CCN(CC(=O)O)CC2)C(=O)N[C@@H](CC(=O)O)C(=O)N[C@@H](CC2CCCCC2)C(=O)N[C@@H](Cc2ccccc2)C(=O)N[C@H](CO)C(=O)N[C@H](CCCNC(=N)N)C(=O)N[C@@H](Cc2ccc(O)cc2)C(=O)N[C@@H](CC(C)C)C(=O)N[C@@H](Cc2c[nH]c3ccccc23)C(=O)N[C@@H](CO)C(N)=O)cc1 [[^177Lu]Lu-uPAR-15, metal not drawn] | tissue uptake at 24 h (in vivo; Muscle uptake): 0.05 ± 0.01 %ID/g; tissue uptake at 4 h (in vivo; Pancreas uptake): 0.61 ± 0.1 %ID/g; tissue uptake at 24 h (in vivo; Pancreas uptake): 0.09 ± 0.02 %ID/g; tissue uptake at 4 h (in vivo; Salivary glands uptake): 1.2 ± 0.2 %ID/g; tissue uptake at 24 h (in vivo; Salivary glands uptake): 0.21 ± 0.03 %ID/g; tissue uptake at 4 h (in vivo; Spleen uptake): 0.93 ± 0.09 %ID/g; tissue uptake at 24 h (in vivo; Spleen uptake): 0.51 ± 0.23 %ID/g; tissue uptake at 4 h (in vivo; Stomach uptake): 0.67 ± 0.11 %ID/g; tissue uptake at 24 h (in vivo; Stomach uptake): 0.12 ± 0.03 %ID/g; logD (physchem): -0.03 ± 0.01; Human blood plasma stability, intact radiopeptide ([2]; 1 h): 100 ± 1%; Mouse blood plasma stability, intact radiopeptide ([2]; 1 h): 100 ± 1%; Human blood plasma stability, intact radiopeptide ([2]; 4 h): 99 ± 1%; Mouse blood plasma stability, intact radiopeptide ([2]; 4 h): 99 ± 1%; Human blood plasma stability, intact radiopeptide ([2]; 24 h): 96 ± 1%; Mouse blood plasma stability, intact radiopeptide ([2]; 24 h): 94 ± 2% |
